Assay results reported in patent US5593985A, “Cephalosporin compounds” (priority 1994, dated 1997).
≈ marks a conversion by molar mass, not a printed value.

Columns and labels:
Format in all cases: cell-based
[1] = tested on: Enterobacter cloacae P 99; test: MIC, standard strain 19; settings: P99, 18 h, read-out: Minimal Inhibitory Concentration(MIC)
Protocol: (§1) In order to illustrate antibiotic effectiveness of the compounds of the present invention, the minimal inhibitory concentrations (MIC's) of the representative compounds were determined against standard strains and compared with ceftazidime and cefpirome, which were used as control compounds.
(§2) The MIC values were taken by employing a two-fold dilution method: that is, two-fold serial dilutions of each of the test compounds were made from initial concentration of […]; each 1.5 ml of them was dispersed in 13.5 ml of Muller Hinton agar medium to adjust to […]; the standard test strain which had the concentration of 10^7 CFU/ml was inoculated by medium;and these were incubated at 37° C. for 18 hours.
(§3) The test used twenty kinds of standard test strains which induced urinary tract infections, respiratory organ infections, skin soft tissue infections, plasma infections, gastrointestinal infections, central nervous system infections, most of which produce β-lactamase. The standard test strains used are as follows:
19. Enterobacter cloacae P 99

Salmonella typhimurium = test: MIC, standard strain 16; settings: Salmonella enterica; S. typhimurium; two-fold dilution, Muller Hinton agar, 10^7 CFU/ml, 37° C., 18 hours; read-out: Minimal Inhibitory Concentration(MIC)
Protocol: as §1, §2, §3
16. Salmonella typhimurium

[2] = tested on: Pseudomonas aeruginosa 9.027; test: MIC, standard strain 12; settings: Pseudomonas aeruginosa; P. aeruginosa 9.027; two-fold dilution, Muller Hinton agar, 10^7 CFU/ml, 37° C., 18 hours; read-out: Minimal Inhibitory Concentration(MIC)
Protocol: as §1, §2, §3
12. Pseudomonas aeruginosa 9.027

[3] = tested on: Staphylococcus aureus 285; test: MIC, standard strain 5; settings: Staphylococcus aureus; S. aureus 285; two-fold dilution, Muller Hinton agar, 10^7 CFU/ml, 37° C., 18 hours; read-out: Minimal Inhibitory Concentration(MIC)
Protocol: as §1, §2, §3
5. Staphylococcus aureus 285

[4] = tested on: Streptococcus pyogenes A 77; test: MIC, standard strain 2; settings: A77, S. pyogenes A 77, two-fold dilution, Muller Hinton agar, 10^7 CFU/ml, 37° C., 18 hours, read-out: Minimal Inhibitory Concentration(MIC)
Protocol: as §1, §2, §3
2. Streptococcus pyogenes A 77

Escherichia coli DC 2 = test: MIC, standard strain 9; settings: DC2, E. coli DC 2, two-fold dilution, Muller Hinton agar, 10^7 CFU/ml, 37° C., 18 hours, read-out: Minimal Inhibitory Concentration(MIC)
Protocol: as §1, §2
(§4) The test used twenty kinds of standard test strains which induced urinary tract infections, respiratory organ infections, skin soft tissue infections, plasma infections, gastrointestinal infections, central nervous system infections, most of which produce β-lactamase.

Enterococcus I = test: MIC, clinically separated strains; settings: 18 h
Protocol: as §2

Methicillin Resistant = test: MIC, clinically separated strains; settings: 18 h, 19 clinical strains
Protocol: as §2

Serratia spp = test: MIC, clinically separated strains; settings: 18 h
Protocol: as §2

Escherichia coli = test: MIC, clinically separated strains; settings: 18 h
Protocol: as §2

Morganella morganii = test: MIC, clinically separated strains; settings: 18 h
Protocol: as §2

Pseudomonas I = test: MIC, clinically separated strains; settings: 18 h
Protocol: as §2

Klebsiella oxytoca = test: MIC, clinically separated strains; settings: 18 h
Protocol: as §2

Providencia rettgeri = test: MIC, clinically separated strains; settings: 18 h
Protocol: as §2

Pseudomonas II = test: MIC, clinically separated strains; settings: 18 h
Protocol: as §2

Pseudomonas aeruginosa = test: MIC, clinically separated strains; settings: 18 h
Protocol: as §2

MRSA(KAIST) = test: MIC, clinically separated strains; settings: Staphylococcus aureus, 18 h
Protocol: as §2

Enterobactercloacas = test: MIC, clinically separated strains; settings: Enterobacter cloacae, 18 h, 20 clinical strains
Protocol: as §2

ATCC = test: MIC, clinically separated strains; settings: 18 h; 20 strains
Protocol: as §2

D Streptococcus I = test: MIC, clinically separated strains; settings: 18 h
Protocol: as §2

Proteus vulgaris = test: MIC, clinically separated strains; settings: 18 h
Protocol: as §2

Proteus mirabilis = test: MIC, clinically separated strains; settings: 18 h
Protocol: as §2

Enterococcus II = test: MIC, clinically separated strains; settings: 18 h
Protocol: as §2

Streptococcus II = test: MIC, clinically separated strains; settings: 18 h
Protocol: as §2

Streptococcus faecium 8b = test: MIC, standard strain 3; settings: Enterococcus faecium; S. faecium 8b; two-fold dilution, Muller Hinton agar, 10^7 CFU/ml, 37° C., 18 hours; read-out: Minimal Inhibitory Concentration(MIC)
Protocol: as §1, §2, §3
3. Streptococcus faecium 8b

Escherichia coli TEM = test: MIC, standard strain 10; settings: 18 h, read-out: Minimal Inhibitory Concentration(MIC)
Protocol: as §1, §2, §4

[5] = read-out: range of MIC, 20 clinical strains
[6] = read-out: range of MIC, 5 clinical strains

SMILES: CO/N=C(\C(=O)N[C@@H]1C(=O)N2C(C(=O)[O-])=C(C[n+]3ccc(C(N)=O)c4c3CCC4)CS[C@H]12)c1csc(N)n1 [Example 3]
- MIC [1]: 3120 µg/mL (≈ 5600 µM)
- MIC (Salmonella typhimurium): 25 µg/mL (≈ 44.8 µM)
- MIC [2]: 1560 µg/mL (≈ 2800 µM)
- MIC [3]: 781 µg/mL (≈ 1400 µM)
- MIC [4]: 2 µg/mL (≈ 3.59 µM)
- MIC (Escherichia coli DC 2): 25 µg/mL (≈ 44.8 µM)
- MIC50 (Enterococcus I; 20 clinical strains): 0.025 µg/mL (≈ 0.0448 µM)
- MIC90 (Enterococcus I; 20 clinical strains): 0.049 µg/mL (≈ 0.0879 µM)
- MIC (Enterococcus I; [5]): 0.013 to 0.195 µg/mL (≈ 0.0233 to 0.35 µM)
- MIC (Methicillin Resistant; read-out: range of MIC): 0.781 to 100 µg/mL (≈ 1.4 to 179 µM)
- MIC50 (Methicillin Resistant): 6.25 µg/mL (≈ 11.2 µM)
- MIC90 (Methicillin Resistant): 50 µg/mL (≈ 89.7 µM)
- MIC50 (Serratia spp; 20 clinical strains): 0.025 µg/mL (≈ 0.0448 µM)
- MIC90 (Serratia spp; 20 clinical strains): 0.049 µg/mL (≈ 0.0879 µM)
- MIC (Serratia spp; [5]): 0.025 to 0.049 µg/mL (≈ 0.0448 to 0.0879 µM)
- MIC50 (Escherichia coli; 20 clinical strains): 0.025 µg/mL (≈ 0.0448 µM)
- MIC90 (Escherichia coli; 20 clinical strains): 0.049 µg/mL (≈ 0.0879 µM)
- MIC (Escherichia coli; [5]): 0.025 to 0.391 µg/mL (≈ 0.0448 to 0.701 µM)
- MIC50 (Morganella morganii; 5 clinical strains): 0.013 µg/mL (≈ 0.0233 µM)
- MIC90 (Morganella morganii; 5 clinical strains): 0.025 µg/mL (≈ 0.0448 µM)
- MIC (Morganella morganii; [6]): 0.013 to 0.025 µg/mL (≈ 0.0233 to 0.0448 µM)
- MIC50 (Pseudomonas I): 3.12 µg/mL (≈ 5.6 µM)
- MIC90 (Pseudomonas I): 6.25 µg/mL (≈ 11.2 µM)
- MIC (Pseudomonas I; read-out: range of MIC): 0.781 to 12.5 µg/mL (≈ 1.4 to 22.4 µM)
- MIC50 (Klebsiella oxytoca; 20 clinical strains): 0.013 µg/mL (≈ 0.0233 µM)
- MIC90 (Klebsiella oxytoca; 20 clinical strains): 0.098 µg/mL (≈ 0.176 µM)
- MIC (Klebsiella oxytoca; [5]): 0.007 to 0.391 µg/mL (≈ 0.0126 to 0.701 µM)
- MIC50 (Providencia rettgeri; 6 clinical strains): 0.013 µg/mL (≈ 0.0233 µM)
- MIC90 (Providencia rettgeri; 6 clinical strains): 0.049 µg/mL (≈ 0.0879 µM)
- MIC (Providencia rettgeri; read-out: range of MIC, 6 clinical strains): 0.004 to 0.098 µg/mL (≈ 0.00717 to 0.176 µM)
- MIC50 (Pseudomonas II): 1.56 µg/mL (≈ 2.8 µM)
- MIC90 (Pseudomonas II): 6.25 µg/mL (≈ 11.2 µM)
- MIC (Pseudomonas II; read-out: range of MIC): 0.781 to 12.5 µg/mL (≈ 1.4 to 22.4 µM)
- MIC50 (Pseudomonas aeruginosa; 20 clinical strains): 3.12 µg/mL (≈ 5.6 µM)
- MIC90 (Pseudomonas aeruginosa; 20 clinical strains): 6.25 µg/mL (≈ 11.2 µM)
- MIC (Pseudomonas aeruginosa; [5]): 0.781 to 12.5 µg/mL (≈ 1.4 to 22.4 µM)
- MIC50 (MRSA(KAIST); 15 clinical strains): 6.25 µg/mL (≈ 11.2 µM)
- MIC90 (MRSA(KAIST); 15 clinical strains): 50 µg/mL (≈ 89.7 µM)
- MIC (MRSA(KAIST); read-out: range of MIC, 15 clinical strains): 0.781 to 100 µg/mL (≈ 1.4 to 179 µM)
- MIC (Enterobactercloacas; read-out: range of MIC): 0.013 to 1.56 µg/mL (≈ 0.0233 to 2.8 µM)
- MIC50 (Enterobactercloacas): 0.025 µg/mL (≈ 0.0448 µM)
- MIC90 (Enterobactercloacas): 0.049 µg/mL (≈ 0.0879 µM)
- MIC50 (ATCC): 0.098 µg/mL (≈ 0.176 µM)
- MIC90 (ATCC): 25 µg/mL (≈ 44.8 µM)
- MIC50 (D Streptococcus I; 20 clinical strains): 12.5 µg/mL (≈ 22.4 µM)
- MIC90 (D Streptococcus I; 20 clinical strains): 25 µg/mL (≈ 44.8 µM)
- MIC (D Streptococcus I; [5]): 12.5 to 100 µg/mL (≈ 22.4 to 179 µM)
- MIC50 (Proteus vulgaris; 5 clinical strains): 0.025 µg/mL (≈ 0.0448 µM)
- MIC90 (Proteus vulgaris; 5 clinical strains): 0.098 µg/mL (≈ 0.176 µM)
- MIC (Proteus vulgaris; [6]): 0.025 to 0.098 µg/mL (≈ 0.0448 to 0.176 µM)
- MIC50 (Proteus mirabilis; 4 clinical strains): 0.013 µg/mL (≈ 0.0233 µM)
- MIC90 (Proteus mirabilis; 4 clinical strains): 0.049 µg/mL (≈ 0.0879 µM)
- MIC (Proteus mirabilis; read-out: range of MIC, 4 clinical strains): 0.007 to 0.049 µg/mL (≈ 0.0126 to 0.0879 µM)
- MIC50 (Enterococcus II; 20 clinical strains): 0.025 µg/mL (≈ 0.0448 µM)
- MIC90 (Enterococcus II; 20 clinical strains): 1.56 µg/mL (≈ 2.8 µM)
- MIC (Enterococcus II; [5]): 0.007 to 3.12 µg/mL (≈ 0.0126 to 5.6 µM)
- MIC50 (Streptococcus II; 17 clinical strains): 0.004 µg/mL (≈ 0.00717 µM)
- MIC90 (Streptococcus II; 17 clinical strains): 0.007 µg/mL (≈ 0.0126 µM)
- MIC (Streptococcus II; read-out: range of MIC, 17 clinical strains): 0.002 to 0.007 µg/mL (≈ 0.00359 to 0.0126 µM)
- MIC (Streptococcus faecium 8b): 12500 µg/mL (≈ 22400 µM)
- MIC (Escherichia coli TEM): 49 µg/mL (≈ 87.9 µM)
